Where a name gives a salt, the structure may show the parent alone.
Assays:
[1] = biological target: T1, NK-1 (Homo sapiens, UniProt P25103); assay: NK1 radioligand binding assay ([125I]Substance P, U373 membranes); details: U373 cell membranes, 200 pM [125I]Substance P, 1 hour at room temperature
T1 construct: 30 ul/well of a 2×U373 membrane preparation
How it was run: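 Displacement of Kd-level [125I]Substance P (400 pM 2× stock) from U373 membranes in pH 7.5 Tris-Cl/MgCl2 buffer with protease inhibitors, 1 h, room temperature. Filtration onto GF/B, then scintillation counting. Percent inhibition, referenced to DMSO and L-733,060 wells, fitted by four-parameter equation to give IC50; triplicate plates.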

[2] = biological target: hSERT (Homo sapiens, UniProt P31645); assay: SERT radioligand binding assay ([125I]RTI-55, HEK-hSERT membranes); details: HEK-293 hSERT membranes, 260 pM [125I]RTI-55, 1 hour at room temperature; read-out: SERT IC50
How it was run: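 IC50 values derive from four-parameter fits of triplicate percent-inhibition curves, with DMSO as 0% and fluoxetine as 100%. Binding used [125I]RTI-55 at its Kd (520 pM 2× solution) and HEK-hSERT membranes (15 ug/ml 2×) in Tris/NaCl/KCl, pH 7.5, 1 hour, room temperature. Filter-bound radioactivity was counted.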

T1 sequence (P25103 whole entry): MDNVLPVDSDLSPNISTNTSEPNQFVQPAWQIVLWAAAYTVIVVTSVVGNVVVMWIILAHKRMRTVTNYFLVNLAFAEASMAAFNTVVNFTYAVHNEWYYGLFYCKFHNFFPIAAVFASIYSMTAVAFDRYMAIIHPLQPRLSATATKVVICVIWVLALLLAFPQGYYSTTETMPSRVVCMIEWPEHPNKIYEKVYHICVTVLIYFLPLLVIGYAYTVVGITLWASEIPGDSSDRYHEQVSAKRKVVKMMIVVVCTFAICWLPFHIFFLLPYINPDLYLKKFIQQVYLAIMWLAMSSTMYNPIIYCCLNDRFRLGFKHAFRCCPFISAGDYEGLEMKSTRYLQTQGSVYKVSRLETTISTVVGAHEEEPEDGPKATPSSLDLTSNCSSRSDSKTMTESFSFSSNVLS
Sequence of hSERT (P31645 whole entry): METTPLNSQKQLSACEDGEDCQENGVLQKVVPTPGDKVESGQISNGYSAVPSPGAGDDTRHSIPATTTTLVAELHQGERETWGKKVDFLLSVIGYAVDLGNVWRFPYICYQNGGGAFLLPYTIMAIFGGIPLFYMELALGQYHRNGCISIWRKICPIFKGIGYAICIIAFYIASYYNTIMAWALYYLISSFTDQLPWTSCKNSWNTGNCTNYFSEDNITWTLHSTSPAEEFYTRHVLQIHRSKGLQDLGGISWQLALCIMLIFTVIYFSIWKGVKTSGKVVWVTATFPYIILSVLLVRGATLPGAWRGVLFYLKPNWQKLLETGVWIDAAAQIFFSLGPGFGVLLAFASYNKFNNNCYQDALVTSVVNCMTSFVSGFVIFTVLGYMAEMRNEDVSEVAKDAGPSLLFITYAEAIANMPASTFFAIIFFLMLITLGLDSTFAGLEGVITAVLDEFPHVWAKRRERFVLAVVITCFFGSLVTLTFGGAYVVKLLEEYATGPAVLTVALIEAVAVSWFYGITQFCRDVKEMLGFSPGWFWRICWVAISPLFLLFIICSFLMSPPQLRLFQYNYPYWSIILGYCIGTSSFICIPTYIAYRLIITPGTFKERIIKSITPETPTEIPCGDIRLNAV

Compound | IC50 [1] [nM] | IC50 [2] [nM]
COC(=O)C(OCC1(c2ccc(F)cc2)CCN(C)CC1)c1cc(Cl)cc2cn[nH]c12 (centres unmarked) [Example 89, Methyl 2-(5-chloro-1H-indazol-7-yl)-2-((4-(4-fluorophenyl)-1-methylpiperidin-4-yl)methoxy)acetate trifluoroacetic acid salt] | > 300 | 0.01 to 100
CN1CCC(COC(C(=O)O)c2cc(Cl)cc3cn[nH]c23)(c2ccc(F)cc2)CC1 (centres unmarked) [Example 90, 2-(5-Chloro-1H-indazol-7-yl)-2-((4-(4-fluorophenyl)-1-methylpiperidin-4-yl)methoxy)acetic acid trifluoroacetic acid salt] | > 300 | 0.01 to 100
CN1CCC(COC(C(=O)N(C)C)c2cc(Cl)cc3cn[nH]c23)(c2ccc(F)cc2)CC1 (centres unmarked) [Example 91, 2-(5-Chloro-1H-indazol-7-yl)-2-((4-(4-fluorophenyl)-1-methylpiperidin-4-yl)methoxy)-N,N-dimethylacetamide trifluoroacetic acid salt] | > 300 | 0.01 to 100
CN1CCC(COC(CO)c2cc(Cl)cc3cn[nH]c23)(c2ccc(F)cc2)CC1 (centres unmarked) [Example 92, 2-(5-Chloro-1H-indazol-7-yl)-2-((4-(4-fluorophenyl)-1-methylpiperidin-4-yl)methoxy)ethanol trifluoroacetic acid salt] | 0.01 to 100 | 0.01 to 100
COCC(OCC1(c2ccc(F)cc2)CCN(C)CC1)c1cc(Cl)cc2cn[nH]c12 (centres unmarked) [Example 93, 5-Chloro-7-(1-((4-(4-fluorophenyl)-1-methylpiperidin-4-yl)methoxy)-2-methoxyethyl)-1H-indazole trifluoroacetic acid salt] | 0.01 to 100 | 0.01 to 100
CN1CCC(COC(CF)c2cc(Cl)cc3cn[nH]c23)(c2ccc(F)cc2)CC1 (centres unmarked) [Example 94, 5-Chloro-7-(2-fluoro-1-((4-(4-fluorophenyl)-1-methylpiperidin-4-yl)methoxy)ethyl)-1H-indazole] | 0.01 to 100 | 0.01 to 100
CN1CCC(COC(C#N)c2cc(Cl)cc3cn[nH]c23)(c2ccc(F)cc2)CC1 (centres unmarked) [Example 95, 2-(5-Chloro-1H-indazol-7-yl)-2-((4-(4-fluorophenyl)-1-methylpiperidin-4-yl)methoxy)acetonitrile] | 0.01 to 100 | 0.01 to 100
CC(OCC1(c2ccc(F)cc2)CCN(C)CC1)c1cc(Cl)cc2[nH]c(=O)[nH]c12 (centres unmarked) [Example 96, 6-Chloro-4-(1-((4-(4-fluorophenyl)-1-methylpiperidin-4-yl)methoxy)ethyl)-1H-benzo[d]imidazol-2(3H)-one trifluoroacetic acid salt] | 100 to 300 | 0.01 to 100
CC(OCC1(c2ccc(F)cc2)CCN(C)CC1)c1cc(Cl)cc2[nH]c(=O)n(C)c12 (centres unmarked) [Example 97, 5-Chloro-7-(1-((4-(4-fluorophenyl)-1-methylpiperidin-4-yl)methoxy)ethyl)-1-methyl-1H-benzo[d]imidazol-2(3H)-one trifluoroacetic acid salt] | 100 to 300 | 0.01 to 100
CC(OCC1(c2ccc(F)cc2)CCN(C)CC1)c1cc(Cl)cc2c1[nH]c(=O)n2C (centres unmarked) [Example 98, 6-Chloro-4-(1-((4-(4-fluorophenyl)-1-methylpiperidin-4-yl)methoxy)ethyl)-1-methyl-1H-benzo[d]imidazol-2(3H)-one trifluoroacetic acid salt] | 0.01 to 100 | 0.01 to 100
C[C@@H](OCC1(c2ccc(F)cc2)CCNCC1)c1cc(Cl)cc2c(Cl)n[nH]c12 [Example 99, (R)-3,5-Dichloro-7-(1-((4-(4-fluorophenyl)piperidin-4-yl)methoxy)ethyl)-1H-indazole] | 0.01 to 100 | 0.01 to 100
C[C@@H](OCC1(c2ccc(F)cc2)CCN(C)CC1)c1cc(Cl)cc2c(Cl)n[nH]c12 [Example 100, (R)-3,5-Dichloro-7-(1-((4-(4-fluorophenyl)-1-methylpiperidin-4-yl)methoxy)ethyl)-1H-indazole] | 0.01 to 100 | 0.01 to 100
C[C@@H](OCC1(c2ccc(F)cc2)CCNCC1)c1cc(Br)cc2c(Br)n[nH]c12 [Example 101, (R)-3,5-Dibromo-7-(1-((4-(4-fluorophenyl)piperidin-4-yl)methoxy)ethyl)-1H-indazole] | 0.01 to 100 | 0.01 to 100
C[C@@H](OCC1(c2ccc(F)cc2)CCN(C)CC1)c1cc(Br)cc2c(Br)n[nH]c12 [Example 102, (R)-3,5-Dibromo-7-(1-((4-(4-fluorophenyl)-1-methylpiperidin-4-yl)methoxy)ethyl)-1H-indazole] | 0.01 to 100 | 0.01 to 100
Cc1n[nH]c2c([C@@H](C)OCC3(c4ccc(F)cc4)CCN(C)CC3)cc(Cl)cc12 [Example 103, (R)-5-Chloro-7-(1-((4-(4-fluorophenyl)-1-methylpiperidin-4-yl)methoxy)ethyl)-3-methyl-1H-indazole] | 0.01 to 100 | 0.01 to 100
C[C@@H](OCC1(c2ccc(F)cc2)CCNCC1)c1cc(Cl)cc2cn(CC3CC3)nc12 [Example 104] | 0.01 to 100 | 0.01 to 100

Compound | IC50 [1] [nM] | IC50 [2] [nM]
C[C@@H](OCC1(c2ccc(F)cc2)CCN(C)CC1)c1cc(Cl)cc2cn(CC3CC3)nc12 [Example 105, (R)-5-chloro-2-(cyclopropylmethyl)-7-(1-((4-(4-fluorophenyl)-1methylpiperidin-4-yl)methoxy)ethyl)-2H-indazole] | 0.01 to 100 | 0.01 to 100
C[C@@H](OCC1(c2ccc(F)cc2)CCN(C)CC1)c1cc(Cl)cc2cnn(CC3CC3)c12 [Example 106, (R)-5-chloro-1-(cyclopropylmethyl)-7-(1-((4-(4-fluorophenyl)-1methylpiperidin-4-yl)methoxy)ethyl)-1H-indazole] | 0.01 to 100 | 0.01 to 100
C[C@@H](OCC1(c2ccc(F)cc2)CCN(C)CC1)c1cc(Cl)cc2cn(CC#N)nc12 [Example 107, (R)-2-(5-chloro-7-(1-((4-(4-fluorophenyl)-1-methylpiperidine-4-yl)methoxy)ethyl)-2H-indazole-2-yl)acetonitrile] | 0.01 to 100 | 0.01 to 100
C[C@@H](OCC1(c2ccc(F)cc2)CCN(C)CC1)c1cc(Cl)cc2cnn(CC#N)c12 [Example 108] | 0.01 to 100 | 0.01 to 100
CN1CCC(CO[C@H](CF)c2cc(Cl)cc3c(Cl)n[nH]c23)(c2ccc(F)cc2)CC1 [Example 109, (S)-3,5-dichloro-7-(2-fluoro-1-((4-(4-fluorophenyl)-1-methylpiperidine-4-yl)methoxy)ethyl)-1H-indazole] | 0.01 to 100 | 0.01 to 100
CN1CCC(COC(CC#N)c2cc(Cl)cc3cn[nH]c23)(c2ccc(F)cc2)CC1 (centres unmarked) [Example 110, 3-(5-chloro-1H-indazol-7-yl)-3-((4-(4-fluorophenyl)-1-methylpiperidine-4-yl)methoxy)propanenitrile] | 0.01 to 100 | 0.01 to 100
CN(C)CC(OCC1(c2ccc(F)cc2)CCNCC1)c1cc(Cl)cc2cn[nH]c12 (centres unmarked) [Example 111, 2-(5-chloro-1H-indazol-7-yl)-2-((4-(4-fluorophenyl)piperidine-4-yl)methoxy)-N,N-dimethylethanamine] | > 300 | 0.01 to 100
CN(C)CC(OCC1(c2ccc(F)cc2)CCN(C)CC1)c1cc(Cl)cc2cn[nH]c12 (centres unmarked) [Example 112, 2-(5-chloro-1H-indazol-7-yl)-2-((4-(4-fluorophenyl)-1-methylpiperidine-4-yl)methoxy)-N,N-dimethylethanamine] | > 300 | 100 to 300
CN1CCC(COC(c2cc(Cl)cc3cn[nH]c23)C(F)F)(c2ccc(F)cc2)CC1 (centres unmarked) [Example 113, 5-chloro-7(2,2-difluoro-1-((4-(4-fluorophenyl)-1-methylpiperidin-4-yl)methoxy)ethyl)-1H-indazole] | 0.01 to 100 | 0.01 to 100
CCC(OCC1(c2ccc(F)cc2)CCNCC1)c1cc(Cl)cc2cn[nH]c12 (centres unmarked) [Example 114, 5-chloro-7-(1-((4-(4-fluorophenyl)piperidin-4-yl)methoxy)propyl)-1H-indazole] | 0.01 to 100 | 0.01 to 100
CCC(OCC1(c2ccc(F)cc2)CCN(C)CC1)c1cc(Cl)cc2cn[nH]c12 (centres unmarked) [Example 115, 5-chloro-7-(1-((4-(4-fluorophenyl)-1-methylpiperidin-4-yl)methoxy)propyl)-1H-indazole] | 0.01 to 100 | 0.01 to 100
C[C@@H](OCC1(c2ccc(F)cc2)CCN(C)CC1)c1cc(Cl)cc2c(Cl)n(CC(F)(F)F)nc12 [Example 116, (R)-3,5-dichloro-7-(1-((4-(4-fluorophenyl-1-methyl)piperidine-4-yl)methoxy)ethyl)-2-(2,2,2-trifluoroethyl)-2H-indazole] | 0.01 to 100 | 0.01 to 100
C[C@@H](OCC1(c2ccccc2)CCN(C)CC1)c1cc(Cl)cc2c(Br)n[nH]c12 [Example 118, (R)-3-bromo-5-chloro-7-(1-((1-methyl-4-phenylpiperidin-4yl)methoxy)ethyl)-1H-indazole] | 0.01 to 100 | 0.01 to 100
C[C@@H](OCC1(c2ccccc2)CCNCC1)c1cc(Cl)cc2c(Cl)n[nH]c12 [Example 119, (R)-3,5-dichloro-7-(1-((4-phenylpiperidin-4yl)methoxy)ethyl)-1H-indazole] | 0.01 to 100 | 0.01 to 100
C[C@@H](OCC1(c2ccccc2)CCN(C)CC1)c1cc(Cl)cc2c(Cl)n[nH]c12 [Example 120, (R)-3,5-dichloro-7-(1-((1-methyl-4-phenylpiperidin-4yl)methoxy)ethyl)-1H-indazole] | 0.01 to 100 | 0.01 to 100
